According to patent publication US7674816B2, “Substituted melatonin derivatives, process for their preparation, and methods of use” (Abraxis BioScience, LLC, priority 2003, dated 2010):

Experiments:
GABAA α-1 site [1] = test: GABAA alpha 1 site competitive binding (3H-flunitrazepam); conditions: Conc. 1.0E−4 M, bovine hippocampus
Description: (§1) The binding profile of exemplary inventive compounds to neurotransmitter receptor sites is set forth below in Table 1. The characterization of the receptors, isolation of the membrane, and enzyme assay have been described in detail previously (see, e.g., Cole et al., Life Sci., 35, 1755 (1984), Lawrence et al., J. Neurochem., 45(3), 798 (1985), Sweetnam et al., Mol. Pharmacology, 29, 299 (1986), Zarkovsky et al., Neuropharmacology, 26 (7A), 737 (1987), Li et al., Eur. J. Pharmacology, 413, 63 (2001), and Markela et al., Mol. Pharmacology, 52, 380 (1997)).
(§2) The melatonin binding site on GABAA was defined using a series of competitive binding assays. Frozen bovine hippocampus was thawed and homogenized in 40 volumes of ice-cold 0.32 M sucrose. The suspension was centrifuged at 1000×g for 10 minutes at 4° C. The pellet was washed twice in assay buffer and reacted with radioactive ligand in presence or absence of melatonin at 10^−4 M final concentration. The amount of radioactivity remained on the Whatman filter following filtration of the reaction mix and two washes with assay buffer was determined using a liquid scintillation counter. Inhibition of radioactive ligand binding by melatonin represents the competitive binding of melatonin to the same site as the radioactive ligand. GABAA agonist site, GABAA α-1 site, GABAA α-5 site, GABAA α-6 site, and GABAA Cl channel were assayed using ^3H-GABA, ^3H-flunitrazepam, ^3H-RY80, ^3H-Ro 15-4513, and ^3H-TBOB.

GABAA α-5 site = target: T1, GABAA α-5 site (Bos taurus, UniProt P22300+Q08E50); test: GABAA alpha 5 site competitive binding (3H-RY80); conditions: bovine hippocampus
T1 construct: Frozen bovine hippocampus was thawed and homogenized in 40 volumes of ice-cold 0.32 M sucrose; from tissue; host or cells: bovine hippocampus membranes (washed pellet)
T1 sequence (Q08E50 32-462): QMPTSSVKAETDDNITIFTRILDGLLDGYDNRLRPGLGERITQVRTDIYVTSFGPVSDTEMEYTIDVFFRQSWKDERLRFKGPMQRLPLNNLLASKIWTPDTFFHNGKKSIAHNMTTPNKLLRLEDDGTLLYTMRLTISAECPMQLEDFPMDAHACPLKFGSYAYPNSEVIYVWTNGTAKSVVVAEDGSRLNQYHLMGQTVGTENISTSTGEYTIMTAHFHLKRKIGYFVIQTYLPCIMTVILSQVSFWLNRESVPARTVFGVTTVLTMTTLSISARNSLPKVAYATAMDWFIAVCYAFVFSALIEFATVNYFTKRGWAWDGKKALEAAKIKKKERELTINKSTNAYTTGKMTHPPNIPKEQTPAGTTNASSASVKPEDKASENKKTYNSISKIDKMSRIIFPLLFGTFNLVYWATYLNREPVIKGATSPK
T1 sequence (P22300 40-475): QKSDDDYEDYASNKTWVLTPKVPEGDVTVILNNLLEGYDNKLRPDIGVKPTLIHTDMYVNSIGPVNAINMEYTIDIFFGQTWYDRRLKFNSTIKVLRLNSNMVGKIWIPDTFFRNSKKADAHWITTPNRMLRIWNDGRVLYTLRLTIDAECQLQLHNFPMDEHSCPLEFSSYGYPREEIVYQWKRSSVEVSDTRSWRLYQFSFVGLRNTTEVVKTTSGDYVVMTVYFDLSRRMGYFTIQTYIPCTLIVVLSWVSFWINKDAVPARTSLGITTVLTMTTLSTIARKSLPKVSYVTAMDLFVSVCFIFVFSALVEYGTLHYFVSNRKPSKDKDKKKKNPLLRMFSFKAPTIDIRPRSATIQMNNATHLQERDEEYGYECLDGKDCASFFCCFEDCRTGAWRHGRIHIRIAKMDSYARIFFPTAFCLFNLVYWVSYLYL
Experimental: Frozen bovine hippocampus was thawed and homogenized in 40 volumes of ice-cold 0.32 M sucrose. The suspension was centrifuged at 1000×g for 10 minutes at 4° C. […] The amount of radioactivity remained on the Whatman filter following filtration of the reaction mix and two washes with assay buffer was determined using a liquid scintillation counter. Inhibition of radioactive ligand binding by melatonin represents the competitive binding of melatonin to the same site as the radioactive ligand.

GABAA α-6 site [2] = test: GABAA alpha 6 site competitive binding (3H-Ro 15-4513); conditions: Conc. 1.0E−4 M, bovine hippocampus
Description: as §1, §2

GABAA Cl channel [3] = test: GABAA Cl channel, TBOB site competitive binding (3H-TBOB), single concentration; conditions: Conc. 1.0E−4 M, bovine hippocampus
Description: as §1, §2

GABAA agonist site = GABAA agonist site competitive binding (3H-GABA); conditions: Conc. 1.0E−3 M, bovine hippocampus
Description: as §1, §2

GABAA α-1 site [4] = test: GABAA alpha 1 site competitive binding (3H-flunitrazepam); conditions: Conc. 1.0E−3 M, bovine hippocampus
GABAA α-6 site [5] = test: GABAA alpha 6 site competitive binding (3H-Ro 15-4513); conditions: Conc. 1.0E−3 M, bovine hippocampus
GABAA Cl channel [6] = test: GABAA Cl channel, TBOB site competitive binding (3H-TBOB), single concentration; conditions: Conc. 1.0E−3 M, bovine hippocampus

SMILES	Specific binding, GABAA Alpha 1 site (inhibition of radioactive ligand binding) (GABAA α-1 site [1])	Specific binding, GABAA Alpha 5 site (inhibition of radioactive ligand binding) (GABAA α-5 site; Conc. 1.0E−4 M)	Specific binding, GABAA Alpha 6 site (inhibition of radioactive ligand binding) (GABAA α-6 site [2])	Specific binding, GABAA Ion Channels Cl−, TBOB site (inhibition of radioactive ligand binding) (GABAA Cl channel [3])	Specific binding, GABAA Agonist site (inhibition of radioactive ligand binding) (GABAA agonist site)	Specific binding, GABAA Alpha 5 site (inhibition of radioactive ligand binding) (GABAA α-5 site; Conc. 1.0E−3 M)	Specific binding, GABAA Alpha 1 site (inhibition of radioactive ligand binding) (GABAA α-1 site [4])	Specific binding, GABAA Alpha 6 site (inhibition of radioactive ligand binding) (GABAA α-6 site [5])	Specific binding, GABAA Ion Channels Cl−, TBOB site (inhibition of radioactive ligand binding) (GABAA Cl channel [6])
COc1ccc(-c2[nH]c3ccc(OC)cc3c2CCNC(C)=O)cc1	−8.16%	7.09%	6.68%	108.82%					
COc1cc2c(CCNC(C)=O)c[nH]c2cc1Cl [6-Chloromelatonin]					−13.74%	13.95%	12.49%	−7.74%	43.63%
